Consider one molecule from patent US20190106460A1, “BINDING INHIBITORS OF THE BETA. TRANSDUCIN REPEAT-CONTAINING PROTEIN” (priority 2011, published 2019).

In one experiment the test system is PNT-1 cell line. The experiment in a line: xCELLigence cell growth, non-malignant PNT-1. It is filed as cell-based. Here is the method: xCELLigence Method • Before starting the experiment add 50 μL of medium (RPMI 1640, 10% fetal bovine serum, 100 units/mL penicillin, 100 ug/mL streptomycin, and 2 mmol/L glutamine, all from GIBCO) to each well of 96 well E-plate (Roche) and place the plate in the xCELLigence platform to measure the background. • LNCaP/PNT-1 cells are seeded (LNCaPs 80000 cells/well; PNT1 3000 cells/well) in the plate in complete medium and equilibrated for 60 mins at RT before returning to the xCELLigence platform and incubating at 37° C./5% CO2. • 24 hrs after seeding, remove 100 μL of medium was removed from each well and cells were treated with compounds or DMSO diluted in 100 μL of OptiMEM (GIBCO). • Replace the plate in the xCELLigence platform • Cells growth can then be monitored in real-time by the cell index profile on the xCELLigence readout screen • Cell growth can be expressed as normalized cell index and doubling time/slope calculated using the RTCA software.
The susceptibility of cancer cell lines versus non-cancer cell lines following treatment with the compounds was also investigated.

The subject of a further experiment is PDCD4 in MCF7 cells. The experiment in a line: In-cell western assay for PDCD4 accumulation. It counts as cell-based. Here is the method:
In-Cell Western Assay for PDCD4 Accumulation.
To measure this an in-cell western assay was used and the peptidomimetics were delivered to the cells by nucleofection.
MCF7 cells were grown in 10 cm dishes in 10 ml DMEM+10% FBS and 1% Pen/Strep at 37° C./5% CO2. On the day of nucleofection, the dish was washed with 90% confluent MCF7 cells with 5 ml PBS, then 3 ml of Trypsin/EDTA was added and incubated at 37° C./5% CO2 for approximately 5 mins until the cells detached from the plastic. 7 ml of normal growth media was added and the number of cells present was counted using a haemocytometer.
The cells were centrifuged cells at 90 g for 10 mins at RT and the supernatant was removed. 100 μl of Nucleofection Buffer V+ Supplement was added (Lonza Biologics Cat no VCA-1003) per 8×10^5 cells, and the cells were added to peptidomimetics dissolved in <3% DMSO.
The cell/peptidomimetic mix was added to cuvettes supplied for the nucleofector and the sample was nucleofected using the recommended MCF7 programme for high cell viability (i.e. E-014). 500 μl of TPA (12-O-tetradecanoylphorbol-13-acetate)-supplemented growth media (i.e. DMEM/10% FBS/1% Pen-Strep/10 nM TPA) was added to the cuvette and 100 μl of this solution was transferred to a well of a 96 well plate and incubated at 37° C./5% CO2 for 8 hours.
The celled were fixed by removing the growth media, adding 3.7% Formaldehyde in PBS and incubating at RT for 20 mins. The plate was washed three times in PBS. And the cells were permeabilised by washing 5× for 5 mins each in PBS+0.1% Triton X-100.
The cells were blocked by adding 3% BSA in PBS-Tween to the cells and incubating at RT for 1.5 hours. An anti-PDCD4 antibody (Abcam cat no: ab80590) was added at a concentration of 1:1000 in 3% BSA in PBS-T (50 ul/well) and incubated at RT for 2.5 hours. The cells were washed 5× for 5 mins each with PBS-T before the secondary antibody (LiCor Biosciences Donkey Anti-Rabbit IRDye 800CW cat no 926-32213) was added at a concentration of 1:1000, along with the DNA stain DRAQ5 at a concentration of 1:10000, in 3% BSA in PBS-T (50 ul/well) and incubated at RT for 1 hour, protected from light.
The cells were washed cells 5× for 5 mins each with PBS-T and all the liquid was removed from the wells before the plate was read on the LiCor Biosciences Odyssey at 700 nm and 800 nm. The reading was normalised in the 800 nm channel to that in the 700 nm channel. The data are shown in FIG. 12, where DMSO was used as a negative control and 20 μM MG132 was used as a positive control. The data is presented as percentage activity with DMSO=0% and […]=100% activity. Error bars represent standard deviation from 3 replicates.
The compounds shown in FIGS. 14A-14B were synthesised to improve cell permeability. […] FIG. 16 compares the round II compounds (shown in FIGS. 14A-14B) with UBP036 in this assay. […] Inhibition of βTrCP, which is responsible for the degradation of both PDCD4 and β-catenin, causes a concomitant stabilisation and accumulation of levels of these proteins which can be measured by in cell western assay.

Non-standard residues stand in square brackets, D forms with d. Residues, ends and D or L forms follow the SMILES beside them. Groups on a side chain read outwards from the residue. *: point of attachment. X3 = CC(C)CCC[C@@H](C)[C@H]1CCC2C3CC=C4C[C@@H](OC(=O)*)CC[C@]4(C)C3CC[C@@]21C; Benzenesulfonyl(4-OMe) = COc1ccc(S(=O)(=O)*)cc1; Phe(3-F) = N[C@@H](Cc1cccc(F)c1)C(=O)O; Ahx = NCCCCCC(=O)O

`COc1ccc(S(=O)(=O)N[C@H](CC(=O)O)C(=O)N[C@@H](CCC(=O)O)C(=O)NCC(=O)N[C@@H](Cc2cccc(F)c2)C(=O)N[C@@H](Cc2c[nH]c3ccccc23)C(=O)N[C@@H](CCC(=O)O)C(=O)NCCCCCC(=O)N[C@@H](CCCCNC(=O)CCCCCNC(=O)O[C@H]2CC[C@@]3(C)C(=CCC4C3CC[C@@]3(C)C4CC[C@@H]3[C@H](C)CCCC(C)C)C2)C(N)=O)cc1` (stereo partly drawn) [UBP036, 4-(MeO)PhSO2-dEGF(3F)WE-Ahx-K(Ahx-Chol)-NH2] ({Benzenesulfonyl(4-OMe)}-[dD]EG[Phe(3-F)]WE[Ahx]K([Ahx-X3])-NH2): the “cell growth, xCELLigence” value in the experiment with PNT-1 cell line was “far less effect”. In addition, the “accumulation of PDCD4, in cell western” value in the experiment on PDCD4 in MCF7 cells (MCF7, treatment with cell permeable compound) is reported as “accumulation of PDCD4”. Moreover, in the experiment with PDCD4 in MCF7 cells (general statement, different delivery vehicles), the cell based activity entry is given as “display cell based activity”.
